Data from US5466858A, “Method of producing straight-chain acrylonitrile dimers” (priority 1993, dated 1995).
Where two headings read alike, the source gives them in different places.

[1] = in water, ionic strength 0 to 0.1 mole/liter, 25° C.

| SMILES | pKa (water) | pKa [1] |
| --- | --- | --- |
| Cc1cccc(C(=O)O)c1 [m-methylbenzoic acid, reference compound] | 4.27 |  |
| Nc1ccccc1C(=O)O [Anthranilic acid] |  | 4.79 |
| CC(=O)c1ccc(C(=O)O)cc1 [p-acetylbenzoic acid] | 3.70 |  |
| O=C(O)c1c(F)cccc1F [2,6-difluorobenzoic acid] | 2.31 |  |
| COc1ccccc1C(=O)O [o-methoxybenzoic acid] |  | 4.09 |
| O=C(O)c1ccccc1Cl [o-chlorobenzoic acid] | 2.92 |  |
| O=C(O)c1ccccc1Br [o-bromobenzoic acid] | 2.85 |  |
| O=C(O)c1cccc(C(F)(F)F)c1 [m-trifluoromethylbenzoic acid] | 3.77 |  |
| O=C(O)c1cccc(Cl)c1 [m-chlorobenzoic acid] |  | 3.82 |
| N#Cc1cccc(C(=O)O)c1 [m-cyanobenzoic acid] |  | 3.60 |
| O=C(O)c1c(Cl)cccc1Cl [2,6-dichlorobenzoic acid] |  | 1.82 |
| O=C(O)c1c(F)c(F)c(F)c(F)c1F [pentafluorobenzoic acid, reference compound] | 1.48 |  |
| O=C(O)c1ccccc1F [o-fluorobenzoic acid] |  | 3.27 |
| O=C(O)c1ccccc1-c1ccccc1 [o-phenylbenzoic acid] | 3.46 |  |
| CC(=O)c1ccccc1C(=O)O [o-acetylbenzoic acid] | 3.79 |  |
| O=C(O)c1ccc(Cl)c(Cl)c1 [3,4-dichlorobenzoic acid] |  | 3.64 |
| CNc1ccccc1C(=O)O [N-methylanthranilic acid] |  | 5.34 |
